One test concerns the target T1, Protein Mdm4 (Homo sapiens, UniProt O15151).
T1 sequence (O15151 whole entry): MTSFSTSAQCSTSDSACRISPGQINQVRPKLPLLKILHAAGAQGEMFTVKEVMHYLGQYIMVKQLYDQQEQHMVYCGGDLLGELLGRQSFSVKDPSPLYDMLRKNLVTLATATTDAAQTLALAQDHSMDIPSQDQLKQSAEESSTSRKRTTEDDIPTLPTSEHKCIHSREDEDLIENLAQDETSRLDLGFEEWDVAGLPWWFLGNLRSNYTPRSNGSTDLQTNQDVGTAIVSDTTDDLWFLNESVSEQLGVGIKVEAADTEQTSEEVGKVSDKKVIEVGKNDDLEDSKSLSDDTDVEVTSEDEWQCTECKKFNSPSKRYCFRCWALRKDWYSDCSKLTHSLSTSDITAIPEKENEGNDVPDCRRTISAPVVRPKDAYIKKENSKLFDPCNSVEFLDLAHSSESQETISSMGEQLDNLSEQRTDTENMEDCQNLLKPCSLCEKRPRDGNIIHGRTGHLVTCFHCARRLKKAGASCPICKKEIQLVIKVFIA

The target of test [1] is E3 ubiquitin-protein ligase Mdm2 (Homo sapiens, UniProt Q00987).
Another test has as its system SAOS-2. Briefly: Anticancer activity against p53-deleted human Saos2 cells assessed as inhibition of cell viability measured after 5 days by MTT assay. The following applies: SAOS-2, 120 h.
A further test relates to U2OS. The test is described as follows: Anticancer activity against human U2OS cells expressing wild-type p53 assessed as inhibition of cell viability measured after 5 days by MTT assay. Particulars: 120 h; call rule not given here.
Test [2] has as its system HCT-116. Briefly: Induction of apoptosis in human HCT116 cells assessed as late apoptotic cells expressing wild type p53 at 20 uM measured after 72 hrs by annexin V-FITC/propidium iodide staining-based flow cytometry analysis (reference value: 6.8 %). Format: functional. In general terms: Flow cytometry measures light scatter and fluorescence of single cells or particles in a stream.

Test [3] has as its system HCT-116. The test is described as follows: Induction of apoptosis in human HCT116 cells expressing wild type p53 assessed as live cells at 20 uM measured after 72 hrs by annexin V-FITC/propidium iodide staining-based flow cytometry analysis (reference value: 83.7 %). Format: functional.
The test system of test [4] is HCT-116. The test is described as follows: Induction of apoptosis in human HCT116 cells expressing wild type p53 assessed as early apoptotic cells expressing wild type p53 at 20 uM measured after 72 hrs by annexin V-FITC/propidium iodide staining-based flow cytometry analysis (reference value: 8.8 %). Format: functional.
The subject of test [5] is HCT-116. The test is described as follows: Induction of apoptosis in human HCT116 cells expressing wild type p53 assessed as necrotic cells at 20 uM measured after 72 hrs by annexin V-FITC/propidium iodide staining-based flow cytometry analysis (reference value: 0.7 %). Format: functional.

The structures appear in SMILES notation.

Sequence of E3 ubiquitin-protein ligase Mdm2 (Q00987 whole entry): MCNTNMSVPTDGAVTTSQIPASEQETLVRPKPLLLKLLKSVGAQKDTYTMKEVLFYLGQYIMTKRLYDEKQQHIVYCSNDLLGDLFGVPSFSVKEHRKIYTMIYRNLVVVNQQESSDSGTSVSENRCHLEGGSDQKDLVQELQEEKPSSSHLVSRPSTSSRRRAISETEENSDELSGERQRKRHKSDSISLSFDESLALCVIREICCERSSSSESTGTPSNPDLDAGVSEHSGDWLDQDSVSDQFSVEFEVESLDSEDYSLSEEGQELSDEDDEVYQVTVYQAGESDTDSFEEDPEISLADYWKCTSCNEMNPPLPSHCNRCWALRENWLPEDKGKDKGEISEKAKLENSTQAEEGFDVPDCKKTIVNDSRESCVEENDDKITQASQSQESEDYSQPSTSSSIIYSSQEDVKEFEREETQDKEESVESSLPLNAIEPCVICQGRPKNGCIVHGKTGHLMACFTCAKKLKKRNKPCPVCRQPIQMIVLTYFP

Regarding `CC(C)(C)NC(=O)C(c1ccc(Cl)cc1)N(C=O)Cc1ccc(OCc2ccc(Cl)c(Cl)c2)cc1` (centres undefined), the Ki entry (on Protein Mdm4; in test [1]) was “Not Active” each time.
With `CN(Cc1ccc(OCc2ccccc2Br)cc1)C(C(=O)NC(C)(C)C)c1c(C(=O)O)[nH]c2cc(Cl)ccc12` (centres undefined), the Ki entry (at Protein Mdm4; in test [1]) was “Not Active” in each case.
As for `CC(C)(C)NC(=O)C(c1cccc(Cl)c1)N(C=O)Cc1ccc(Cl)cc1` (centres undefined), the Ki entry (on Protein Mdm4; in test [1]) was “Not Active” each time.
With `CC1(C)[C@H]2CC[C@@]1(C)C(NC(=O)C(c1c(C(=O)O)[nH]c3cc(Cl)ccc13)N(C=O)Cc1ccc(OCc3ccccc3Br)cc1)C2` (some centres undefined), the EC50 came out at 60 µM in the test on SAOS-2 and 40 µM in the test with U2OS.
On to `O=CN(Cc1ccc(OCc2ccccc2Br)cc1)C(C(=O)NC1C2CC3CC(C2)CC1C3)c1c(C(=O)O)[nH]c2cc(Cl)ccc12` (centres undefined), for which the 50% effective concentration (EC50) in the test on SAOS-2 amounted to 130 µM; with U2OS it was 40 µM.
In the case of `CC(C)(C)NC(=O)[C@H](c1c(C(=O)O)[nH]c2cc(Cl)ccc12)N(C=O)Cc1ccc(OCc2ccccc2Br)cc1`, the 50% effective concentration (EC50) with SAOS-2 came out at 200 µM; in the test on U2OS, 130 µM.
In the case of `Cn1c(C(=O)O)c(C(C(=O)NC(C)(C)C)N(C=O)Cc2ccc(OCc3ccccc3Br)cc2)c2ccc(Cl)cc21` (centres undefined), the Ki result (on Protein Mdm4; in test [1]) was “Not Active” each time.
Take `COc1ccc(C2=N[C@@H](c3ccc(Cl)cc3)[C@@H](c3ccc(Cl)cc3)N2C(=O)N2CCNC(=O)C2)c(OC(C)C)c1` [NUTLIN-3]: the Activity in the test on HCT-116 [2] was found to be 18.9%; with HCT-116 [3], 53%; in the test with HCT-116 [4], 26.9%; in the test on HCT-116 [5], 1.2%. For the same compound, in test [1], the Ki entry is “Not Active”.

Broadly, the EC50 is the concentration at which the effect is half-maximal.
